Data taken from EP1750770B1, “USE OF ORGANO-SILICON COMPOUNDS FOR CO[…] TISSUES” (Exsymol, priority 2004, dated 2005).
Like-named read-outs stand apart in the source and are kept apart here.

Legend:
[1] = tested on: matrice extra-cellulaire (MEC) cutanée; experiment: Qualitative evaluation: implant appearance and histological analysis of collagen organisation of the ECM (Test 1); format: in vivo, rats Hairless; details: once daily
Text: (§1) L'action quantitative et qualitative des deux composés organo-siliciés sur des rats Hairless et les altérations d'organisation de leur matrice extra-cellulaire (MEC) cutanée a été évaluée, et de manière régiosélective. En effet, un volume dermique de 0,5 cm^3 environ a été prélevé puis remplacé chirurgicalement par un dispositif médical implantable, que sont les microéponges en polyvinylalcool. Ces dernières sont usuellement utilisées pour la transplantation de cellules (Mooney D.J., J. Biomed. Mat Res(1995), vol.29, pp.959) car biocompatibles, de haute porosité et capables d'absorber 98% de leur volume.
(§2) La re-colonisation de l'implant (ou dispositif médical implantable) par le tissu dermique est alors observée sous l'effet des composés organo-siliciés. […] Les composés organo-siliciés sont administrés à raison d'une fois par jour pendant 2 mois.
(§3) L'évaluation quantitative a été réalisée via une mesure des cinétiques des marqueurs d'activité tissulaire dans la zone implantée. Les marqueurs suivis ont été des marqueurs biologiques témoignant de l'état du tissu, à savoir les enzymes "collagénase" et "élastase" qui rendent compte, avec leurs activités, du turn-over des protéines de la matrice extracellulaire, et l'enzyme "G6PDH" dont l'activité est un marqueur du niveau énergétique des cellules (équilibre redox cellulaire). L'évaluation qualitative a, elle, été réalisée avec le prélèvement chirurgical d'une partie de cet implant à différent temps de l'expérimentation. Après fixation, des coupes de 5 µm et une coloration H.E ou Trichrome-Masson ont été réalisées, ainsi qu'une analyse histologique de l'organisation du collagène de la MEC.

[2] = tested on: glucose-6-phosphate déshydrogénase; experiment: Glucose-6-phosphate dehydrogenase activity in tissue extracts of the dermal implant zone (Test 1); format: in vivo, rats Hairless; details: once daily
Method: 0,8 ml d'extrait tissulaire ont été incubés avec 20 µl de solution à 2,4 mM de NADP et à 24,4 mM de glucose 6-phosphate (G6P) en tampon phosphate (0,1M pH 7,4). L'augmentation de densité optique (mD.O./min) et corrélée à la réduction du substrat a été suivie à 340 nm à 25°C.
as §1, §2, §3

[3] = tested on: élastase; experiment: Elastase activity in tissue extracts of the dermal implant zone (Test 1); format: in vivo, rats Hairless; details: once daily, SalSi-3OH intradermal, HyalSi-3OH topical cream
Method: Du N-succinyl-Ala-Ala-Pro-Leu p-nitroanilide en solution dans un tampon Tris-HCl (10mM pH 8) à 0,5 g/l à été incubé à 37°C avec 0,2 ml d'extrait tissulaire dans un volume final de 1,2 ml pendant 5 heures. L'augmentation de densité optique (mD.O./min) et corrélée à la protéolyse du substrat a été suivie à […].
as §1, §2, §3

[4] = tested on: collagénase; experiment: Collagenase activity in tissue extracts of the dermal polyvinyl alcohol microsponge implant zone (Test 1); format: in vivo, rats Hairless; details: once daily
Method: Une solution à 0,5 mg /ml de PZ-L Pro-L Leu-L Gly-L Pro-D Arg a été réalisée dans un tampon Tris-HCl (25 mM, pH 7,0; 2,5 mM de CaCl2). 0,5 ml de la solution de substrat ont été incubés à 37°C avec 200 µl d'extrait tissulaire pendant 2 h 30. A différents temps, 100 µl du milieu réactionnel ont été prélevés et ajoutés à 250 µl d'acide citrique à 0,5% (arrêt de la réaction) puis à 1,25 ml d'acétate d'éthyle. L'augmentation de densité optique (mD.O./min) et corrélée à la protéolyse du substrat a été suivie à 320 nm.
as §1, §2, §3

[5] = immediately after the injection
[6] = tested on: rides "patte d'oie" et/ou intersourcilières; details: for échelle visuelle analogique, Front / échelle visuelle analogique, Pattes-d'oie: intradermal injections at J0, S1, S2, rated by volunteers; for amélioration du relief cutané: all injected sites
Text: Les données obtenues à partir de l'échelle visuelle analogique ont fait l'objet d'une analyse de variance en mesures répétées sur le temps, suivie d'une analyse des contrastes.

[7] = week 1 post-implantation, SalSi-3OH 0,5% solution 0,2 ml intradermal, HyalSi-3OH 0,5% cream 100 mg topical

hyaluronate de monométhylsilanetriol [HyalSi-3OH]
Aspect implant + analyse histologique ([1]; week 1 post-implantation): début colonisation cellulaire | Aspect implant + analyse histologique ([1]; week 2 post-implantation): colonisation cellulaire (70 à 90%) + début formation MEC | Aspect implant + analyse histologique ([1]; week 3 post-implantation): formation MEC avec accumulation collagène non organisé | Aspect implant + analyse histologique ([1]; week 4 post-implantation): formation MEC avec présence collagène non organisé dans 30% des espaces de l'implant + collagène organisé dans 10% de l'implant | Aspect implant + analyse histologique ([1]; week 5 post-implantation): formation MEC avec présence collagène non organisé dans l'ensemble de l'implant + collagéne organisé dans 30% de l'implant | Aspect implant + analyse histologique ([1]; week 8 post-implantation): formation MEC dans l'ensemble de l'implant + collagène organisé dans 45% de l'implant | Activité G6DPH ([2]; week 1 post-implantation): 8,2±1,9 mD.O./min/mg de prot. | Activité G6DPH ([2]; week 2 post-implantation): 13,8±1,5 mD.O./min/mg de prot. | Activité G6DPH ([2]; week 3 post-implantation): 25,1±4,6 mD.O./min/mg de prot. | Activité G6DPH ([2]; week 4 post-implantation): 46,8±7,6 mD.O./min/mg de prot. | Activité G6DPH ([2]; week 5 post-implantation): 37,5±6,2 mD.O./min/mg de prot. | Activité G6DPH ([2]; week 8 post-implantation): 7,3±2,4 mD.O./min/mg de prot. | Activité élastase ([3]; week 1 post-implantation): 3,4±0,5 mD.O./min/mg de prot. | Activité élastase ([3]; week 2 post-implantation): 7,8±2,2 mD.O./min/mg de prot. | Activité élastase ([3]; week 3 post-implantation): 10,5±2,9 mD.O./min/mg de prot. | Activité élastase ([3]; week 4 post-implantation): 9,4±2,4 mD.O./min/mg de prot. | Activité élastase ([3]; week 5 post-implantation): 5,6±1,1 mD.O./min/mg de prot. | Activité élastase ([3]; week 8 post-implantation): 2,4±0,9 mD.O./min/mg de prot. | Activité collagénase [4, 7]: 3,4±0,3 mD.O./min/mg de prot. | Activité collagénase ([4]; week 2 post-implantation): 5,9±0,7 mD.O./min/mg de prot. | Activité collagénase ([4]; week 3 post-implantation): 12,0±1,3 mD.O./min/mg de prot. | Activité collagénase ([4]; week 4 post-implantation): 14,1±3,1 mD.O./min/mg de prot. | Activité collagénase ([4]; week 5 post-implantation): 7,3±1,6 mD.O./min/mg de prot. | Activité collagénase ([4]; week 8 post-implantation): 3,5±1,4 mD.O./min/mg de prot.

salicylate de monométhylsilanetriol [SalSi-3OH]
Aspect implant + analyse histologique ([1]; week 1 post-implantation): début colonisation cellulaire | Aspect implant + analyse histologique ([1]; week 2 post-implantation): colonisation cellulaire (70à 90%) + début formation MEC | Aspect implant + analyse histologique ([1]; week 3 post-implantation): formation MEC avec présence collagène non organisé | Aspect implant + analyse histologique ([1]; week 4 post-implantation): formation MEC avec présence collagène non organisé dans 20% des espaces de l'implant + collagène organisé dans 20% du l'implant | Aspect implant + analyse histologique ([1]; week 5 post-implantation): formation MEC avec présence collagène non organisédans l'ensemble de l'implant + collagène organisé dans 50% de l'implant | Aspect implant + analyse histologique ([1]; week 8 post-implantation): formation MEC dans l'ensemble de l'implant + collagène organisé dans 70% de l'implant | effet de comblement [5]: sans effet de comblement immédiatement après l'injection | Activité G6DPH ([2]; week 1 post-implantation): 7,6±1,4 mD.O./min/mg de prot. | Activité G6DPH ([2]; week 2 post-implantation): 9,3±1,1 mD.O./min/mg de prot. | Activité G6DPH ([2]; week 3 post-implantation): 18,4±2,9 mD.O./min/mg de prot. | Activité G6DPH ([2]; week 4 post-implantation): 43,7±5,5 mD.O./min/mg de prot. | Activité G6DPH ([2]; week 5 post-implantation): 36,5±4,8 mD.O./min/mg de prot. | Activité G6DPH ([2]; week 8 post-implantation): 9,0±0,45 mD.O./min/mg de prot. | Activité élastase ([3]; week 1 post-implantation): 3,0±0,6 mD.O./min/mg de prot. | Activité élastase ([3]; week 2 post-implantation): 6,8±1,3 mD.O./min/mg de prot. | Activité élastase ([3]; week 3 post-implantation): 9,5±1,3 mD.O./min/mg de prot. | Activité élastase ([3]; week 4 post-implantation): 8,4±1,6 mD.O./min/mg de prot. | Activité élastase ([3]; week 5 post-implantation): 5,1±0,9 mD.O./min/mg de prot. | Activité élastase ([3]; week 8 post-implantation): 2,0±0,3 mD.O./min/mg de prot. | Activité collagénase [4, 7]: 3,6±0,5 mD.O./min/mg de prot. | Activité collagénase ([4]; week 2 post-implantation): 6,1±0,8 mD.O./min/mg de prot. | Activité collagénase ([4]; week 3 post-implantation): 13±1,7 mD.O./min/mg de prot. | Activité collagénase ([4]; week 4 post-implantation): 11,2±0,8 mD.O./min/mg de prot. | Activité collagénase ([4]; week 5 post-implantation): 8,1±1,3 mD.O./min/mg de prot. | Activité collagénase ([4]; week 8 post-implantation): 3,9±0,5 mD.O./min/mg de prot. | échelle visuelle analogique, Front ([6]; S1): 18,67 ± 20,98 µm | échelle visuelle analogique, Pattes-d'oie ([6]; S1): 19,20 ± 19,14 µm | échelle visuelle analogique, Front ([6]; S2): 32,25 ± 23,23 µm | échelle visuelle analogique, Pattes-d'oie ([6]; S2): 31,23 ± 21,66 µm | échelle visuelle analogique, Front ([6]; S6): 35,33 ± 26,99 µm | échelle visuelle analogique, Pattes-d'oie ([6]; S6): 38,92 ± 25,97 µm | échelle visuelle analogique, Front ([6]; S12): 38,65 ± 25,85 µm | échelle visuelle analogique, Pattes-d'oie ([6]; S12): 41,63 ± 26,70 µm | échelle visuelle analogique, Front ([6]; S24): 39,55 ± 25,33 µm | échelle visuelle analogique, Pattes-d'oie ([6]; S24): 39,58 ± 24,89 µm | échelle visuelle analogique, Front ([6]; S36): 36,57 ± 24,55 µm | échelle visuelle analogique, Pattes-d'oie ([6]; S36): 39,52 ± 25,22 µm | échelle visuelle analogique, Front ([6]; S52): 34,58 ± 25,54 µm | échelle visuelle analogique, Pattes-d'oie ([6]; S52): 38,61 ± 26,10 µm | amélioration du relief cutané ([6]; at 6 months): se maintient | amélioration du relief cutané ([6]; at 12 months): régresse très légèrement | amélioration du relief cutané ([6]; mean, after 3 months): 40% | amélioration du relief cutané (significance) ([6]; one year after the first injection): significative sur tous les sites
